Test results as given in paper PMC12089418, “Quantifying VMAT2 target occupancy at effective valbenazine doses and comparing to a novel VMAT2 inhibitor: a translational PET study” (Neuropsychopharmacology, 2025).
Where two headings read alike, the source gives them in different places.

Columns and labels:
[1] = target: T1, VMAT2 (Rattus norvegicus, UniProt Q01827); test: Rat NBI-98782 PK-%TO study; assay type: in vivo; conditions: Data on file
T1 construct: from tissue; host or cells: rats dosed in vivo; tissue and read-out method not described

[2] = tested on: other targets; set-up: method as in PMID 28776237, PMID 28404690, PMID 29680151; conditions: cited from earlier work
[3] = tested on: VMAT2; conditions: cited from earlier work
[4] = Plasma protein binding by equilibrium dialysis, cynomolgus monkey plasma; assay type: in vitro ADME, cynomolgus monkeys; conditions: both sexes, pooled plasma, read-out: fraction unbound in plasma (fu_p)
[5] = target: T2, VMAT2 (Macaca fascicularis, UniProt A0A2K5UVB8); set-up: method as in PMID 32122751; conditions: bolus administration; radioligand [+]-α-[11C]dHTBZ; cited from earlier work
Target sequence in this assay (A0A2K5UVB8 1-517): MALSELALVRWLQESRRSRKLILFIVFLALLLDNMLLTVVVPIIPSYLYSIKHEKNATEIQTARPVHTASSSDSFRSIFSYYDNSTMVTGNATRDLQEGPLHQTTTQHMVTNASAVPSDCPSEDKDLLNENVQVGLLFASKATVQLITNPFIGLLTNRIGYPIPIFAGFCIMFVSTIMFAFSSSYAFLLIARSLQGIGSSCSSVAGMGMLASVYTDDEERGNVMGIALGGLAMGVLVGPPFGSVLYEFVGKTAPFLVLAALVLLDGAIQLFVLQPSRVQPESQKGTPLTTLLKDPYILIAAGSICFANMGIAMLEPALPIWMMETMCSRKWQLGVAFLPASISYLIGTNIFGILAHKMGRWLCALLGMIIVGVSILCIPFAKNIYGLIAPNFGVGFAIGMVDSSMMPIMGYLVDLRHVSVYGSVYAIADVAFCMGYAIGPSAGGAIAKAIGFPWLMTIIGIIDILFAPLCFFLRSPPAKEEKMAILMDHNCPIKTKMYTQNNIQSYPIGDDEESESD

[6] = target: T2, VMAT2; test: NHP [18F]AV-133 PET target occupancy; assay type: in vivo, cynomolgus macaques; conditions: for EC50: Emax model
Protocol: Each NHP PET study enrolled two to three cynomolgus macaques, (3.8–9 year age range).
NHPs fasted overnight before individual PET scans. For the NBI-750142 study, 60 min prior to NBI-750142 or vehicle administration, animals were sedated with an intramuscular injection of 2 mg/kg Aflaxan, 0.02 mg/kg dexmedetomidine, and 0.3 mg/kg midazolam. The animals were intubated with an endotracheal tube for continued delivery of oxygen (1.5–2.5 L) and 1.0–2.5% isoflurane for anesthesia maintenance.
The animals were intubated with an endotracheal tube for continued delivery of isoflurane for anesthesia maintenance.
For all NHP PET scans, blocking compound was administered with a bolus loading dose, followed by constant intravenous infusion over 3 h, with the goal of achieving steady-state plasma exposure. One hour after blocking compound or vehicle administration, [^18F]AV-133 was administered as an intravenous bolus. Dynamic PET data were acquired with a MicroPET Focus-220 camera (Siemens Microsystems, Knoxville, TN) for 120 min post injection and reconstructed into a series of 33 frames and all standard corrections were applied for normalization, randoms, scatter, and attenuation. Brain PET images were analyzed using PMOD software package v3.802 (PMOD Technologies, Zurich, Switzerland). […]
During each scan, 1 mL whole blood PK samples were collected (in K2 EDTA tubes) at multiple time points. Blocking compound concentration in plasma samples were analyzed using validated LC-MS/MS bioanalytical methods. […] The average plasma concentration, Cave, was calculated as the mean compound concentration of samples collected during the PET scan and used for PK-TO analysis.
Time-activity curves were generated for the caudate, putamen, and cerebellum. Non-displaceable binding potential (BPND) was estimated using non-invasive Logan graphical analysis with cerebellum as reference region. %TO of the blocking compound was calculated in the caudate and putamen using baseline and post-dose BPND as follows:1 %TO=1−BPNDpost−block/BPNDbaselinex100 […]
Target sequence in this assay (A0A2K5UVB8 entry or part of it): as the sequence (A0A2K5UVB8 1-517) above

[7] = target: T2, VMAT2; test: In vitro Ki for affinity to VMAT2, NHP; assay type: binding
Target sequence in this assay (A0A2K5UVB8 1-517): as above

[8] = target: T3, VMAT2 (Homo sapiens, UniProt Q05940); test: In vitro Ki for affinity to VMAT2, human; assay type: binding
Source text: Ki values for compound affinity to VMAT2 were generated from human platelet homogenates as described in [18].

[9] = target: T3, VMAT2; test: Human [18F]AV-133 PET target occupancy; assay type: in vivo; set-up: from tissue; host or cells: brain of healthy male volunteers (caudate, putamen); conditions: for URF (upregulation factor): upregulation model
Source text: The human PET study was approved by the IRB (Approval number: Pro00037529). All participants gave their written informed consent prior to participation in the study. Twelve healthy male subjects were enrolled in cohorts of 2–4 subjects each. Subjects were 29–54 years of age (mean of 43.2 years), and the study had standard inclusion/exclusion criteria, with attention to avoiding drugs which may interfere with the [^18F]AV-133 measurements or with NBI-750142 metabolism.
Subjects fasted during the study and received a small, predefined snack at least 2 h prior to oral dosing of NBI-750142. Consumption of alcohol, caffeine, nicotine or cannabis products, and grapefruit or grapefruit juice was prohibited during the study. One PET scan occurred ~1.5 h following administration of NBI-750142, and a second ~18 h post NBI-750142. These scans are referred to as “T1” and “T2,” respectively, throughout this study (Supplementary Fig. 1). T1 scans were timed to occur at approximately the time to reach maximal plasma concentration, Tmax, and provide the closest comparison to the NHP PET measurements. T2 scans should contribute data points to the lower NBI-750142 concentration portion of the PK-%TO curve and potentially reveal dose-response hysteresis (reviewed in ref. [22]). A total of five cohorts were enrolled in the study in an adaptive design, with two subjects enrolled in each cohort, except for four subjects in cohort 5. NBI-750142 doses in these cohorts ranged from 10 to 200 mg. Blood samples were obtained from each participant immediately before [^18F]AV-133 injection and just before the end of the PET scan in order to quantify plasma concentration of NBI-750142. The Cave derived from these two values was used to compare against %TO.
Prior to the radiotracer injection and PET, a low-dose CT scan was collected for attenuation correction. Subjects were administered a single dose of [^18F]AV-133 intravenously over 3 min using an infusion pump (~3.33 mL per min) through a venous catheter followed by a 10 mL saline flush. Dynamic PET imaging of the brain was acquired over 120 min following radiotracer injection on a Siemens Biograph 6 PET/CT camera with the following frame times: 6 × 30 s, 4 × 1 min, 4 × 2 min, 21 × 5 min (0–120 min). Images were reconstructed with a 168 × 168 × 81 matrix (pixel size of 2.03 mm × 2.03 mm) using an iterative reconstruction algorithm (OSEM 4 iterations, 16 subsets) and a post hoc Gaussian filter FWHM = 3 mm. Standard corrections for random, scatter, system dead time, and attenuation provided by the camera manufacturer were performed. A T1 MRI scan was acquired from eligible subjects as part of the screening visit, to identify and delineate brain anatomical regions of interest for individual PET images. MRI scans were obtained on a Siemens Espree 1.5 Tesla clinical magnet.
Reconstructed PET images were motion and decay corrected, realigned to the subject MRI and subsequently normalized into standard MNI (Montreal Neurological Institute) space using PMOD. Volumes of interest (VOIs) were defined from a template (Hammers, N30R83). Average activity concentration within each VOI was determined and time activity curves (TACs) were generated. TACs were extracted from the following VOIs: caudate and putamen (striatum), and occipital cortex. BPND, the primary outcome measure, was estimated with noninvasive Logan graphical analysis […] 1. The relationship between %TO (averaged between caudate and putamen) and average plasma concentration during the scan was analyzed with an Emax model (Eq. 2) and an upregulation model (Eq. 4), which incorporates an upregulation factor (URF; [24]).4 %TO=Drug−EC50Drug/Drug+EC50(URF−1)/Drug+EC50

[10] = Human steady-state plasma exposure (population PK / superposition); assay type: in vivo; conditions: 60 mg NBI-750142 BID
Protocol: (§1) Valbenazine human plasma exposure metrics in patients were estimated with a population pharmacokinetic (PK) analysis and plasma protein binding (PPB) data. […] These steady-state concentrations, in conjunction with free EC50 from NHP PET for blocking compounds was used to estimate %TO in humans. Plasma concentrations of NBI-750142 following 60 mg BID dose were estimated using plasma concentrations following a single oral dose of 60 mg NBI-750142 using the principle of superposition.

[11] = target: T3, VMAT2; test: Estimated human VMAT2 %TO from human PK and NHP PET free EC50; assay type: in vivo; set-up: from tissue; host or cells: brain of healthy male volunteers (caudate, putamen)
Protocol: as §1

[12] = Plasma protein binding by equilibrium dialysis, human plasma; assay type: in vitro ADME, humans; conditions: both sexes, pooled plasma, read-out: fraction unbound in plasma (fu_p)
[13] = target: T2, VMAT2; test: [18F]AV-133 baseline PET test-retest; assay type: in vivo, cynomolgus macaques; conditions: 2 NHPs, caudate and putamen, baseline scans ~5 months apart
Protocol: Test-retest variability of BPND in the caudate and putamen were calculated as3 TRTV%=100xBPND1−BPND2/(BPND1+BPND2)/2
Target sequence in this assay (A0A2K5UVB8 entry or part of it): as the sequence (A0A2K5UVB8 1-517) above

[14] = tested on: TD patients; set-up: method as in PMID 28320223; conditions: 6 weeks, cited from earlier work
[15] = tested on: chorea associated with Huntington’s Disease; set-up: method as in PMID 37210099; conditions: valbenazine 80 mg; cited from earlier work
[16] = estimated from single 60 mg oral dose by superposition
[17] = 60 mg NBI-750142 BID, NHP PET free EC50 6.7 ng/mL
[18] = 40 mg VBZ QD, from free NBI-98782 and NHP PET EC50
[19] = 80 mg VBZ QD, from free NBI-98782 and NHP PET EC50

T3 sequence (Q05940 whole entry): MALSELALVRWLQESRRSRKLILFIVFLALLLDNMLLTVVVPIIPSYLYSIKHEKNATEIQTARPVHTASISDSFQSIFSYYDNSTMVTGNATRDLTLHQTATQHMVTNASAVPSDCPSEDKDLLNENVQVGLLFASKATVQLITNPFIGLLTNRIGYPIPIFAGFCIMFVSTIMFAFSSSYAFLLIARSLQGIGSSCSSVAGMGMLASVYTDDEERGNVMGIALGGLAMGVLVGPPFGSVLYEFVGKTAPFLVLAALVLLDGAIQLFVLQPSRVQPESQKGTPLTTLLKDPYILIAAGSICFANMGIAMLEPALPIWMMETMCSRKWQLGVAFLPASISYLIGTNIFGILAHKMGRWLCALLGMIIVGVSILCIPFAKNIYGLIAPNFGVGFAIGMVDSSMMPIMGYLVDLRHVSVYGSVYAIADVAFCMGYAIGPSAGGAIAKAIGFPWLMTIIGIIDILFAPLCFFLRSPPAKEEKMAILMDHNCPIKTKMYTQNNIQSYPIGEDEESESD
T1 sequence (Q01827 whole entry): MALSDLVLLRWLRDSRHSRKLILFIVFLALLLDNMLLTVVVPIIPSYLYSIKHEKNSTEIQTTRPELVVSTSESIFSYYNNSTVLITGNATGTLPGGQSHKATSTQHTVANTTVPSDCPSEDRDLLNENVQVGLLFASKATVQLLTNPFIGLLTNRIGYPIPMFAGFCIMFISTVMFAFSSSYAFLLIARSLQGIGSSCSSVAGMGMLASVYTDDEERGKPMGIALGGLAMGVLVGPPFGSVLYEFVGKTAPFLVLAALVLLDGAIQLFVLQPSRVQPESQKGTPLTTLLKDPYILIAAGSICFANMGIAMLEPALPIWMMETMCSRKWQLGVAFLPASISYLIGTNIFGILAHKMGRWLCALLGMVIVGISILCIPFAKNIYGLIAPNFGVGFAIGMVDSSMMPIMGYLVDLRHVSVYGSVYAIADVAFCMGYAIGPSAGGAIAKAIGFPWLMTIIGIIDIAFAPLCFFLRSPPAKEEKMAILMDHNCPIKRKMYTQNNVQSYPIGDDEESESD

## COc1cc2c(cc1OC)C1CC(O)C(CC(C)C)CN1CC2 (stereo not drawn) [NBI-98782, (+)-α-dHTBZ (dihydrotetrabenazine)]
[1]
  NBI-98782 PK-%TO relationship, valbenazine-dosed vs NBI-98782-dosed rats: nearly identical
[2]
  inhibition of other targets: minimal to non-detectable inhibition
[3]
  potency at VMAT2: nanomolar potency
[4]
  fraction unbound: 0.4
[5]
  ED50 (dose vs VMAT2 occupancy): 0.055 mg/kg

## COc1cc2c(cc1OC)[C@H]1CN(C)[C@H](CC(C)(C)C)CN1CC2 [NBI-750142]
[6]; NHP, free PET EC50 over in vitro Ki
  EC50:Ki Ratio: 1.1
[6]; total compound Cave during 120-min scan, read-out: EC50 (average total plasma concentration vs %TO) (converted)
  EC50: 33.1 nM
[6]; total concentration multiplied by fu_p, read-out: free EC50 (free plasma concentration vs %TO) (converted)
  EC50: 20.2 nM
[7]
  Ki: 18.3 nM
[8]
  Ki: 27.7 nM
[9]; Human, free PET EC50 over in vitro Ki
  EC50:Ki Ratio: 1.4
[9]; T1 and T2, occipital cortex reference, read-out: EC50, Emax model (converted)
  EC50: 105 nM
[9]; T1 and T2, white matter reference
  URF (upregulation factor): 1.9
[9]; T1 and T2, white matter reference (post hoc), read-out: EC50, Emax model (converted)
  EC50: 93.2 nM
[9]; T1 and T2, white matter reference (post hoc), read-out: EC50, upregulation model (converted)
  EC50: 33.1 nM
[9]; T1 and T2 data, occipital cortex reference, read-out: EC50, upregulation model (converted)
  EC50: 18.9 nM
[9]; T1 and T2 data, occipital cortex reference
  URF (upregulation factor): 2.8
[9]; T1 scans (~[…] post oral dose), Emax model, occipital cortex reference, read-out: total EC50 (average total plasma concentration vs %TO) (converted)
  EC50: 75.8 nM
[9]; T1 scans, Emax model, WM-derived BPND (post hoc), read-out: total EC50, white matter reference (converted)
  EC50: 74.6 nM
[9]; T1 scans, Emax model, total concentration multiplied by fu_p, read-out: free EC50 (free plasma concentration vs %TO) (converted)
  EC50: 37.9 nM
[9]; T2 scans ~18 h post NBI-750142, occipital cortex reference
  VMAT2 occupancy at T2: negative occupancy
[9]; T2 time points (~18 h post dose), WM-derived values
  average striatal occupancy at T2: 0.09%
[10]; [16]
  Cavg, total: 27.7 ng/mL
  Cmax, total: 48.1 ng/mL
  Ctrough, total: 7.6 ng/mL
[10]; total x fu_p
  Cavg, free: 13.9 ng/mL
  Cmax, free: 24.1 ng/mL
  Ctrough, free: 3.8 ng/mL
[4]
  fraction unbound: 0.59
[11]; 60 mg NBI-750142 BID (acceptable doses), Ctrough to Cmax
  VMAT2 %TO estimations: 36–78%
[11]; [17]
  VMAT2 %TO at Cavg: 67%
  VMAT2 %TO at Cmax: 78%
  VMAT2 %TO at Ctrough: 36%
[12]
  fraction unbound: 0.5

## COc1cc2c(cc1OCCC[18F])CCN1C[C@@H](CC(C)C)[C@H](O)C[C@H]21 [[^18F]AV-133]
[13]
  test-retest variability of baseline BPND: < 10%

## COc1cc2c(cc1OC)[C@H]1C[C@@H](OC(=O)[C@@H](N)C(C)C)[C@H](CC(C)C)CN1CC2 [valbenazine]
[14]; valbenazine 40 mg once daily oral
  Cohen's d, AIMS score reduction: 0.5
[14]; valbenazine 40 mg
  patients with robust AIMS response (>50% reduction from baseline): 24%
[14]; valbenazine 80 mg once daily oral
  Cohen's d, AIMS score reduction: 0.9
[14]; valbenazine 80 mg
  patients with robust AIMS response (>50% reduction from baseline): 40%
[15]
  Cohen's d, chorea: 0.9
[3]; parent compound vs active metabolite
  potency at VMAT2 relative to NBI-98782 (fold less potent): ~ 40 fold
[11]; [18]
  VMAT2 %TO at Cavg: ~ 80%
  VMAT2 %TO at Cmax: 82%
  VMAT2 %TO at Ctrough: 73%
[11]; 40 mg VBZ QD, from free NBI-98782 and NHP PET EC50, listed as VBZ
  VMAT2 %TO at Cavg: 79%
[11]; [19]
  VMAT2 %TO at Cavg: 89%
  VMAT2 %TO at Cmax: 91%
  VMAT2 %TO at Ctrough: above 85%
[11]; 80 mg VBZ QD, from free NBI-98782 and NHP PET EC50, listed as VBZ
  VMAT2 %TO at Ctrough: 85%
[11]; 80 mg valbenazine daily, Ctrough to Cmax
  VMAT2 %TO estimations at steady state: ~ 90%
[11]; 40 and 80 mg once daily
  VMAT2 occupancy achieved by once daily valbenazine treatment: 80–90%
